Reference: patent publication US20240208992A1, “MACROCYCLES AS CFTR MODULATORS” (Idorsia Pharmaceuticals Ltd, priority 2021, published 2024)
pEC50: −log10 of the molar value.

Target: human F508del-CFTR (Homo sapiens, UniProt P13569, DEL508-508)
Test: F508del-CFTR cell surface expression (corrector activity), DiscoveRx ß-galactosidase complementation chemiluminescence assay in recombinant U2OS cell line;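 also: U2OS cells co-expressing ProLink-tagged F508del-CFTR and a membrane-anchored enzyme acceptor, where more surface CFTR restores β-galactosidase activity measured by chemiluminescence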
Conditions: for pEC50: EC50, F508del-CFTR cell surface expression, U2OS cells, 16h compound incubation, geomean values; for Emax: U2OS, in relation to Emax of corrector lumacaftor (=100%), arithmetic mean values

Sequence of human F508del-CFTR (P13569 with tags, fused parts or gaps DEL508-508): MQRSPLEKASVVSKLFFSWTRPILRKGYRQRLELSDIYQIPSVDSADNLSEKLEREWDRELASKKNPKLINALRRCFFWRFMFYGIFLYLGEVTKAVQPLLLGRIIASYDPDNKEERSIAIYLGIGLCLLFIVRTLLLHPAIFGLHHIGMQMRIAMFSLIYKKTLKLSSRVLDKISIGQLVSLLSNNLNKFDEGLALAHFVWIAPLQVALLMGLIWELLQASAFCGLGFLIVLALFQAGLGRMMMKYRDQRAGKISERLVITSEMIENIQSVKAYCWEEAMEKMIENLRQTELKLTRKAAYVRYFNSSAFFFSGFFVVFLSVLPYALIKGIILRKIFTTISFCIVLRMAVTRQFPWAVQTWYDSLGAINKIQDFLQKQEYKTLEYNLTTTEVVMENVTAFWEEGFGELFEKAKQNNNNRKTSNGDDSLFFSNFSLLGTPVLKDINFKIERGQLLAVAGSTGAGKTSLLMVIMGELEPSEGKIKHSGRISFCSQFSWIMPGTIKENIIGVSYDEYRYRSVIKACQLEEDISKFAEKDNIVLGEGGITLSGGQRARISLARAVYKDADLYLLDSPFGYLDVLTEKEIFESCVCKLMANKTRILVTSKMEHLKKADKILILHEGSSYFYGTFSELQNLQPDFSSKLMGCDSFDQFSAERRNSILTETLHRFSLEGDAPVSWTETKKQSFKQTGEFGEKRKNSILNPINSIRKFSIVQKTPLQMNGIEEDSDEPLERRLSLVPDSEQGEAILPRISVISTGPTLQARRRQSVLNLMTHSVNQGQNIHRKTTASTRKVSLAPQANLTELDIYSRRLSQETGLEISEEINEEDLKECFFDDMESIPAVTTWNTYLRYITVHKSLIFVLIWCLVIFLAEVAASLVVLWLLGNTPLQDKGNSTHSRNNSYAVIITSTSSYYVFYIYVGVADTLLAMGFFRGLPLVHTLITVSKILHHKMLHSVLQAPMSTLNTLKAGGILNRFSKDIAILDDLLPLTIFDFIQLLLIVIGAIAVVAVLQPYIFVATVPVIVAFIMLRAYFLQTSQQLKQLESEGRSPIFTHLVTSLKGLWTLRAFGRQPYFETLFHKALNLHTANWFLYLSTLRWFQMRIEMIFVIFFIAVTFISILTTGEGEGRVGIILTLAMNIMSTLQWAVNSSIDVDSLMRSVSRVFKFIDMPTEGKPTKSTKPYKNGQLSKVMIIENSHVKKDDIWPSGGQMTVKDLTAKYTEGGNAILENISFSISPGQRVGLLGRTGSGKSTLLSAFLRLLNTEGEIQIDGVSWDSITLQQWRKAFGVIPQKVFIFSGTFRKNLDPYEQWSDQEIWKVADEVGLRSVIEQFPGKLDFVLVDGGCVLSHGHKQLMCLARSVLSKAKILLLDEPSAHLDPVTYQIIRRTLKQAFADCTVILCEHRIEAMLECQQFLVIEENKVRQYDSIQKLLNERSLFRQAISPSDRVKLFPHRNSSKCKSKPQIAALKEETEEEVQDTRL

pEC50 | Emax [%] | Compound
6.82 | 318 | CC(C)C[C@H]1C(=O)N2CCCC[C@@H]2C(=O)N[C@H](Cc2ccccc2)COc2ccc3ncc(F)cc3c2C(=O)N[C@H](C(=O)NCCc2cc(C3CC3)no2)CC(=O)N1C [Example 655, (9S,13S,19aR,22R)-22-benzyl-N-(2-(3-cyclopropylisoxazol-5-yl)ethyl)-5-fluoro-13-isobutyl-12-methyl-7,11,14,20-tetraoxo-7,8,9,10,11,12,13,14,17,18,19,19a,20,21,22,23-hexadecahydro-16H-pyrido[2′,1′:6,7][1]oxa[4,7,10,14]tetraazacycloheptadecino[16,17-f]quinoline-9-carboxamide]
6.45 | 327 | COc1nc(C)cc2c1C(=O)N[C@H](C(=O)NCCc1nc(C3CC3)no1)CC(=O)N(C)[C@@H](CC(C)C)C(=O)N1CCCC[C@@H]1C(=O)N[C@H](Cc1ccccc1)CO2 [Example 656, (7S,11S,17aR,20R)-20-benzyl-N-(2-(3-cyclopropyl-1,2,4-oxadiazol-5-yl)ethyl)-11-isobutyl-4-methoxy-2,10-dimethyl-5,9,12,18-tetraoxo-5,6,7,8,9,10,11,12,15,16,17,17a,18,19,20,21-hexadecahydro-14H-dipyrido[2,1-f:3′,4′-p][1]oxa[4,7,10,14]tetraazacycloheptadecine-7-carboxamide]
6.46 | 291 | [2H]C([2H])([2H])Oc1nc(C)cc2c1C(=O)N[C@H](C(=O)NCCc1nc(C3CC3)no1)CC(=O)N(C)[C@@H](CC(C)C)C(=O)N1CCCC[C@@H]1C(=O)N[C@H](Cc1ccccc1)CO2 [Example 657, (7S,11S,17aR,20R)-20-benzyl-N-(2-(3-cyclopropyl-1,2,4-oxadiazol-5-yl)ethyl)-11-isobutyl-4-(methoxy-d3)-2,10-dimethyl-5,9,12,18-tetraoxo-5,6,7,8,9,10,11,12,15,16,17,17a,18,19,20,21-hexadecahydro-14H-dipyrido[2,1-f:3′,4′-p][1]oxa[4,7,10,14]tetraazacycloheptadecine-7-carboxamide]
6.55 | 300 | COc1nc(C)cc2c1C(=O)N[C@H](C(=O)NCCc1cc(C3CC3)no1)CC(=O)N(C)[C@@H](CC(C)C)C(=O)N1CCCC[C@@H]1C(=O)N[C@H](Cc1ccccc1)CO2 [Example 658, (7S,11S,17aR,20R)-20-benzyl-N-(2-(3-cyclopropylisoxazol-5-yl)ethyl)-11-isobutyl-4-methoxy-2,10-dimethyl-5,9,12,18-tetraoxo-5,6,7,8,9,10,11,12,15,16,17,17a,18,19,20,21-hexadecahydro-14H-dipyrido[2,1-f:3′,4′-p][1]oxa[4,7,10,14]tetraazacycloheptadecine-7-carboxamide]
6.44 | 325 | [2H]C([2H])([2H])Oc1nc(C)cc2c1C(=O)N[C@H](C(=O)NCCc1cc(C3CC3)no1)CC(=O)N(C)[C@@H](CC(C)C)C(=O)N1CCCC[C@@H]1C(=O)N[C@H](Cc1ccccc1)CO2 [Example 659, (7S,11S,17aR,20R)-20-benzyl-N-(2-(3-cyclopropylisoxazol-5-yl)ethyl)-11-isobutyl-4-(methoxy-d3)-2,10-dimethyl-5,9,12,18-tetraoxo-5,6,7,8,9,10,11,12,15,16,17,17a,18,19,20,21-hexadecahydro-14H-dipyrido[2,1-f:3′,4′-p][1]oxa[4,7,10,14]tetraazacycloheptadecine-7-carboxamide]
7.04 | 358 | CC(C)C[C@H]1C(=O)N2CCCC[C@@H]2C(=O)N[C@H](Cc2ccccc2)COc2cnc3cccc(F)c3c2C(=O)N[C@H](C(=O)NCCc2cc(C3CC3)no2)CC(=O)N1C [Example 660, (9S,13S,19aR,22R)-22-benzyl-N-(2-(3-cyclopropylisoxazol-5-yl)ethyl)-6-fluoro-13-isobutyl-12-methyl-7,11,14,20-tetraoxo-7,8,9,10,11,12,13,14,17,18,19,19a,20,21,22,23-hexadecahydro-16H-pyrido[2′,1′:6,7][1]oxa[4,7,10,14]tetraazacycloheptadecino[17,16-c]quinoline-9-carboxamide]
